Measured values taken from PMC5863515, “Re-evaluation of Adrenocorticotropic Hormone and Melanocyte Stimulating Hormone Activation of GPR139 in Vitro” (Frontiers in Pharmacology, 2018).
Read-outs that look alike come from different tables or passages of the source.

Legend:
[1] = target: T1, GPR139 (Homo sapiens, UniProt Q6DWJ6); design: method as in Shehata et al. (2016); details: ref Shehata et al. (2016); cited from earlier work
T1 sequence (Q6DWJ6 1-353): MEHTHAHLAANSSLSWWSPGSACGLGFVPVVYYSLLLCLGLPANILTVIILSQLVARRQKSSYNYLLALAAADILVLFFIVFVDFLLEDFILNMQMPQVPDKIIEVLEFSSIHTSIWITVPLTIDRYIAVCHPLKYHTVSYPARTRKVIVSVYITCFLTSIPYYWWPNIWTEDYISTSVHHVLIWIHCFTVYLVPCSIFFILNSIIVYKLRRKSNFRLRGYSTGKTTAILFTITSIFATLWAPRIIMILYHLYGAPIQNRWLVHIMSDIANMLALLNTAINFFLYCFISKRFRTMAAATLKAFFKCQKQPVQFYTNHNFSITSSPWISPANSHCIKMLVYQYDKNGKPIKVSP

[2] = target: T2, MC3R + Gα16 (Homo sapiens, UniProt P41968); experiment: Calcium mobilization, HEK-293 transiently expressing MC3R + Gα16; type: cell-based
T2 construct: expressed in transfected cells; host or cells: HEK-293, pCIneo, transient (10 μg MCR:5 μg Gα16)
Protocol: (§1) Human MC3R (NM_019888), MC4R (NM_005912), and MC5R (NM_005913) were transiently expressed in HEK-293 cells with and without human GPR139 (KR081941) or the chimeric G-protein Gα16. All genes were cloned into pCIneo (Promega, Madison, WI, United States, #E1841). HEK-293 cells were cultured in DMEM/F12 (Gibco, Grand Island, NY, United States, #11039-021), 10% FBS (Hyclone, Logan, UT, United States, # SH300700.03), 50 units/ml penicillin and 50 μg/ml streptomycin (Mediatech, Manassas, VA, United States, #30-001-CI). Cells were seeded at 4 × 10^6 cells in 10 cm dishes and allowed to grow overnight at 37°C, 5% CO2. On the day of transfection, culture media was replaced with F12-K (Mediatech, Manassas, VA, United States, #10-025-CV), 10% FBS, 20 mM HEPES (Hyclone, Logan, UT, United States, #SH30237.01) and transfected with 15 μg DNA (10 μg MCR:5 μg pCIneo, 10 μg MCR:5 μg Gα16 or 7.5 μg MCR:7.5 μg GPR139) using FuGene HD (Promega, Madison, WI, United States, #E2311) according to manufacturer’s instructions. MC3R, MC4R, and MC5R were also transiently expressed in the following GPR139 stably expressing cell lines using the FuGENE HD method: HEK-293 GPR139 clone#33, CHO-TREx GPR139 clone#18, and SK-N-MC/CRE TREx GPR139 clone#35. Stable cell lines were established according to method previously described ([Liu et al., 2015]).
(§2) Intracellular calcium mobilization was measured with the BD calcium kit (BD Bioscience, San Jose, CA, United States). The recombinant cell lines expressing MC3R, MC4R, and MC5R with and without GPR139 or Gα16 were seeded in culture media at a density of 50,000 cells/well into 96-well black/clear-bottom poly-D-lysine treated tissue culture plates. Cells were incubated overnight at 37°C and 5% CO2. Next day, culture media was removed and cells were washed with HBSS prior to dye-loading for 1 h at 37°C and 5% CO2. […] EC50s were calculated by fitting a three-parameter logistic curve using least-squares non-linear regression analysis as implemented in Graphpad Prism 7.0.

[3] = target: T1, GPR139; experiment: cAMP assay; type: cell-based; details: unpublished data
[4] = target: T1, GPR139; experiment: Calcium mobilization, SK-N-MC/CRE cells stably expressing human GPR139; type: cell-based; design: expressed in transfected cells; host or cells: CHO-TREx GPR139 clone#18
Protocol: as §1
Intracellular calcium mobilization was measured with the BD calcium kit (BD Bioscience, San Jose, CA, United States). The recombinant cell lines expressing MC3R, MC4R, and MC5R with and without GPR139 or Gα16 were seeded in culture media at a density of 50,000 cells/well into 96-well black/clear-bottom poly-D-lysine treated tissue culture plates. Cells were incubated overnight at 37°C and 5% CO2. Next day, culture media was removed and cells were washed with HBSS prior to dye-loading for 1 h at 37°C and 5% CO2. Agonist stimulation and intracellular calcium measurements were done on the FLIPR Tetra (Molecular Devices, Sunnyvale, CA, United States). For receptor inhibition analysis, antagonists (1 μM HS-024 or 10 μM JNJ-3792165) were added off-line 15 min prior to agonist addition on the Tetra. For G-protein inhibitor experiments, cells were treated with 1 μM YM-254890 for 5 min prior to agonist additions on the Tetra. […] Responses in Figure 6 were normalized to its respective agonist response without antagonist. EC50s were calculated by fitting a three-parameter logistic curve using least-squares non-linear regression analysis as implemented in Graphpad Prism 7.0.

[5] = target: T1, GPR139; experiment: [35S]-GTPγS binding assay, membranes of CHO-TREx cells stably expressing GPR139; type: biochemical; design: expressed in transfected cells; host or cells: CHO-TREx GPR139 clone#18; details: for Stimulation of [35S]-GTPγS incorporation after pertussis toxin treatment: 100 ng/ml pertussis toxin overnight; for Stimulation of [35S]-GTPγS incorporation after pertussis toxin treatment / Effect of YM-254890 on agonist [35S]-GTPγS response: data not shown; for Effect of YM-254890 on agonist [35S]-GTPγS response: 1 μM YM-254890 (Gq inhibitor); for EC50: CHO-TREx GPR139 membranes, mean ± SEM, read-out: pEC50, [35S]-GTPγS binding (converted)
Protocol: For G-protein inhibitor experiments, CHO-TRex cells stably expressing GPR139 were treated with 100 ng/ml pertussis toxin (Gi/o inhibitor) overnight prior to harvesting cells for membrane preparations. […] Reactions were terminated by rapid filtration through GF/C filterplates (Perkin-Elmer, Waltham, MA, United States) on a Cell Harvester (Perkin-Elmer, Waltham, MA, United States). Filterplates were washed three times with ice-cold wash buffer (50 mM Tris, 5 mM MgCl2) and Microscint-40 was added to each well. Bound radioactivity was measured on a Topcount scintillation counter (Perkin-Elmer, Waltham, MA, United States). […] EC50s were calculated by modeling the response associated with the logarithm of concentration as a three-parameter logistic curve with the Bottom plateau parameter fixed at 0. The fit was obtained using least-squares non-linear regression as implemented in GraphPad Prism 7.0.

[6] = target: MC4R + Gα16 (Homo sapiens, UniProt P32245); experiment: Calcium mobilization, HEK-293 transiently expressing MC4R + Gα16; type: cell-based; design: expressed in transfected cells; host or cells: HEK-293, pCIneo, transient (10 μg MCR:5 μg Gα16)
Protocol: as §1, §2

[7] = target: T1, GPR139; design: method as in Liu et al., 2015; details: ref Liu et al., 2015; cited from earlier work
[8] = target: T1, GPR139; design: expressed in transfected cells; host or cells: CHO-TREx GPR139 clone#18; method as in Liu et al., 2015; details: used for Cheng-Prussoff; ref Liu et al., 2015; read-out: Kd of [3H]JNJ-63533054; cited from earlier work
[9] = HEK-293 transient, read-out: Agonist potency (pEC50), MC3R + Gα16 (converted)
[10] = SK-N-MC/CRE stable GPR139, read-out: pEC50, calcium mobilization (converted)
[11] = HEK-293 transient, read-out: Agonist potency (pEC50), MC4R + Gα16 (converted)

Chain of MC4R + Gα16 (P32245 whole entry): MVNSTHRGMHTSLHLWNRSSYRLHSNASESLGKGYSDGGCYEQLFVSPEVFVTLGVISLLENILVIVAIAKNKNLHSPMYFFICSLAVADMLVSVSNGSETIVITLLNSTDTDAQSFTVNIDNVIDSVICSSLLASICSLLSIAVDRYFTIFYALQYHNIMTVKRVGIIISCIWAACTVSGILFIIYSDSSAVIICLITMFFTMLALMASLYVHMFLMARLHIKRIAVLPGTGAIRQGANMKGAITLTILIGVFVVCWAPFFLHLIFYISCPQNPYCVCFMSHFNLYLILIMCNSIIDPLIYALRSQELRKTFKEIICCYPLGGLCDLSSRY
T2 sequence (P41968 whole entry): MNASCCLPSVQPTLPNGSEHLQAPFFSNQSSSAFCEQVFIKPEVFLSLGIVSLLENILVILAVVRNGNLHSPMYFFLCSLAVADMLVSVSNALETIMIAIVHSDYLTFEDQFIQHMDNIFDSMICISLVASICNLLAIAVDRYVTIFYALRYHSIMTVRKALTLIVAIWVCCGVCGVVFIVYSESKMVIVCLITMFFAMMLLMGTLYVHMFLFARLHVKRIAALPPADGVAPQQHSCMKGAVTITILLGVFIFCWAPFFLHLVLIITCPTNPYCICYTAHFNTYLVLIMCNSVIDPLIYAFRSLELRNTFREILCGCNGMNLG

| Compound | cAMP response [1] | EC50 [2] [µM] | Response in a cAMP assay [3] | EC50 [4] [µM] | Stimulation of [35S]-GTPγS incorporation after pertussis toxin treatment [5] | Effect of YM-254890 on agonist [35S]-GTPγS response [5] | EC50 [5] [µM] | EC50 [6] [µM] | EC50 [2, 9] [µM] | EC50 [7] [µM] | EC50 [4, 10] [µM] | EC50 [6, 11] [µM] | Kd [8] [µM] |
| --- | --- | --- | --- | --- | --- | --- | --- | --- | --- | --- | --- | --- | --- |
| COc1cc(OC)cc(C(=O)NNC(=O)Nc2cccc3ccccc23)c1 [TC-O9311] | unable to induce or inhibit a cAMP response | > 10 | unable to detect a response | 0.049 | did not stimulate | had no effect | 0.178 | > 10 | – | – | – | – | – |
| N[C@@H](Cc1c[nH]c2ccccc12)C(=O)O [L-Trp, L-tryptophan] | – | – | unable to detect a response | – | did not stimulate | had no effect | 427 | – | > 3160 | 30 to 300 | 398 | > 3160 | – |
| C[C@H](NC(=O)CNC(=O)c1cccc(Cl)c1)c1ccccc1 [JNJ-63533054, 3-chloro-N-[2-oxo-2-[[(1S)-1-phenylethyl]amino]ethyl]benzamide] | unable to induce or inhibit a cAMP response | – | unable to detect a response | – | did not stimulate | had no effect | 0.0646 | – | > 10 | – | 0.0263 | > 10 | 0.01 |
